Entries after “also recorded” stand apart in the source; their conditions may differ. Like-named read-outs stand apart in the source and are kept apart here. No end group written: not given here.
Key:
P. aeruginosa = experiment: Antibacterial activity in vivo, Romaine lettuce infection model; parameters: species or system Pseudomonas aeruginosa; conditions: 200 μg/ml peptide injected with bacteria, scored after 2-3 days
Procedure: FIG. 4: Antibacterial activity in vivo. Romaine lettuce leaves were injected with P. aeruginosa (10^8 cells/nil) in the presence or absence of 200 μg/ml of antibacterial peptides. After 2-3 days incubation the injection sites were scored for infection on a scale of 0-100% relative to the no-bacteria (0% infection) and bacteria-only controls (PAO1) (100%). Data are from six independent experiments and are shown as mean±SEM, N=4−12. *) P<0.04, **) P<0.003.
Romaine lettuce heads were purchased from local grocery stores. Outer leaves were removed and undamaged leaves were selected. The leaves were rinsed in 0.1% bleach and incubated in plastic containers on filter paper moistened with 10 mM MgSO4. Overnight cultures of P. aeruginosa were diluted to 10^8 CFU/ml in 10 mM MgSO4 and supplemented with 200 μg/ml of each peptide. Ten μl (10^6 CFU, 2 μg peptide) were injected into the midrib of each leaf using a micro pipetter. Blank controls were incubated with buffer only, and bacterial controls were incubated without peptide. The plastic trays were covered and incubated at 35° C. Leaves were inspected daily for browning around the injection site or along the midrib. Generally rotting or moldy leaves were discarded. Infection was scored on a scale from 0% to 100% relative to blank controls and bacterial controls, respectively.

P. aeruginosa PAO1 = experiment: Biofilm formation / bacterial adhesion assay, PVC microtiter plates, crystal violet; assay type: cell-based, Pseudomonas aeruginosa; conditions: 50 μg/ml, 6 h
Procedure: FIGS. 7A and 7B: PSP-peptides inhibit biofilm formation. P. aeruginosa PAO1 (overnight cultures, diluted 1:100 were incubated with 50 μg/ml of each peptide (LL37, GK7, GL13, KL11) or lysozyme for 6 h under aerobic (FIG. 7A) or reduced oxygen (anaerobic) (FIG. 7B) conditions. The OD 570 (growth) was determined and the attached cells were then quantitated by staining with crystal violet (biofilm). Growth and biofilm values were normalized against the mean of samples without peptides (HOAc) and expressed as mean±SEM. The data in panel A are from three independent experiments, N=22−24. The data in panel B are from two independent experiments, N=16. Lysozyme (Lyz) data are from a single experiment, N=8. *) different from Growth, P<0.002
(§1) Overnight cultures of P. aeruginosa PAO1 were diluted 1:100 in MHB and 100 μl/well were incubated with 5 μl of LL-37, GK-7, GL-13, KL-11 or lysozyme (1 mg/ml) in PVC microtiter plates. The plates were incubated for 6 h at 32° C. under aerobic or reduced oxygen conditions. Bacterial growth was quantitated spectrophotometrically at 570 nm. Twenty-five μl of 1% crystal violet in dH2O was added to each well and incubated 20 min at room temperature. The wells were emptied and washed three times in dH2O and then incubated for 30 min with 200 μl of 95% ethanol. The OD at 570 nm was determined as a measure of biofilm formation. Growth and biofilm values were normalized against the mean of samples incubated with 0.01% acetic acid without peptides.
as §1, with “μl of the bacterial suspension was mixed” for “μl/well were incubated”, “50 μg/ml” for “5 μl”, “lysozyme” for “lysozyme (1 mg/ml)”

[1] = tested on: P. aeruginosa with RAW 264.7 macrophage cells; experiment: Gentamicin protection assay (phagocytosis / clearance by macrophages); assay type: cell-based, mouse; conditions: 100 μg/ml peptide
Procedure: FIG. 13. Phagocytosis of P. aeruginosa: Bacteria (5×10^8 CFU/ml) were incubated with buffer (Blk), GK-7 or GL-13 (100 μg/ml) for 1 h and added to RAW cells for 2 h. The RAW cells were washed and incubated with […] for 90 min. The cells were lysed in 1% Tween-20 and the diluted contents plated on agar. CFU were enumerated and expressed relative to the mean of the blank in each of three experiments (N=9) *) P=0.025.
Overnight cultures of P. aeruginosa were diluted 1:5 in PBS and incubated for 1 h at room temperature with PSP peptides (100 μg/ml) or with an equivalent amount of 0.01% acetic acid. Aliquots (500 μl) of these samples were added to RAW 264.7 macrophage cells cultured in 24-well plates and incubated for 2 h at 37° C., 5% CO2. The cells were washed in DMEM and then incubated with DMEM containing 200 μg/ml Gentamicin for 90 min at 37° C., 5% CO2. The cells were again washed with DMEM and the incubated with 200 μl/well of PBS containing 1% Tween 20 for 5 min at room temperature. The cell extracts were diluted in LB and plated on LB agar plates. CFU were enumerated after overnight incubation at 37° C.

RAW 264.7 cells = experiment: Assay for inflammation: TNFα secretion with peptides alone (ELISA); assay type: cell-based, mouse
Procedure: (§2) FIGS. 15A and 15B. FIG. 15A. Inhibition of endotoxin-stimulated TNFα secretion. RAW 264.7 macrophage cells were stimulated with 100 ng/ml LPS in the presence or absence of the PSP-derived peptides GK7, KL11 or GL13 (200 μg/ml). Polymyxin B (PMX) was used as a positive control. Further controls consisted of peptides alone without LPS stimulation. TNFα secretion was analyzed by ELISA of the RAW culture medium. The data are from triplicate RAW culture dishes for each condition. *) different from LPS alone P<0.03, **) P<0.0002. FIG. 15B. Dose response curve for the inhibition of LPS-induced TNFα secretion by GL-13.
To determine if the PSP peptides cause an inflammatory response in RAW 264.7 cells, the cells were incubated with each peptide for 24 h and TNFα secretion was quantitated by ELISA.
The vaccine adjuvant monophosphoryl lipid A (MPLA) a low-toxicity derivative of LPS was used to stimulate RAW cells in the presence or absence of PSP peptides (200 μg/ml) or the anti-inflammatory peptide polymyxin B (PMX). Control samples were incubated with the peptides alone.

sheep red blood cells = experiment: Hemagglutination assay; assay type: cell-based; conditions: PBS, absence of serum, 2 h
Procedure: FIG. 22: Hemagglutination of sheep red blood cells. RBCs were washed in PBS and incubated for 2 h in microtiter plates in PBS±5% fetal calf serum. Peptide concentrations were 83 μg/ml. The microtiter plate was imaged. Agglutinated red blood cells form a wide mat of cells, while non-agglutinated cells form a button shaped pellet.
Briefly, unmodified sheep erythrocytes (Cappel, M P Biomedicals, Irvine, Calif.) were washed in PBS and suspended at 1% in PBS. Diluted erythrocytes and 20 μg/ml of each peptide in PBS were mixed in polypropylene microtiter plates (120 μl per well) and incubated for 2 h at 35° C. The plates were imaged on a Kodak Image station.

[2] = tested on: Aggregatibacter (Actinobacillus) actinomycetemcomitans JP2; assay type: cell-based; conditions: 4 h, reduced oxygen
Procedure: The PSP peptides GL13, GK7 and KL11, lysozyme, LL37 or no peptide (BLK) were incubated with P. aeruginosa (FIG. 3A) or A. actinomycetemcomitans (FIG. 3B). P. aeruginosa PAO1 (10^5 cells/ml) were incubated for 2 h at 35° C. with 10 μg/ml (open bars) or 100 μg/ml (shaded bars) of each peptide. A. actinomycetemcomitans JP2 (10^5 cells/nil) were incubated for 4 h at 37° C. under reduced oxygen conditions. Bacterial cultures were diluted and plated on LB agar (Pseudomonas) or BHI agar plates (A.a., low oxygen incubation) and surviving CFUs enumerated. The data are shown as mean±SEM, P. aeruginosa: N=8−22 at 100 μg/ml, N=2−10 at 10 μg/ml. A. actinomycetemcomitans: N=3. *) P<0.0001, **) P<0.004, ***) P<0.02
Overnight cultures of bacteria were pelleted and resuspended in 10 mM sodium phosphate, pH 7.4 (10^5 CFU/ml). Diluted bacteria (100 μl) were incubated with 10 or 100 μg/ml of each peptide in 10 mM sodium phosphate, pH 7.4. P aeruginosa PAO1 were incubated for 2 h at 35° C. while A. actinomycetemcomitans JP2 were incubated for 4 h at 37° C. under reduced oxygen conditions. […]
As a second antibacterial assay, bactericidal activity was determined by incubating the peptides (10 or 100 μg/ml) with P. aeruginosa, A. actinomycetemcomitans or S. gordonii in 10 mM phosphate buffer. […]

[3] = tested on: P. aeruginosa PAO1 on MDCK cell monolayers; experiment: Epithelial invasion assay, MDCK monolayer penetration; assay type: cell-based, Pseudomonas aeruginosa; conditions: 24 h
Procedure: FIG. 10. MDCK monolayer penetration: MDCK cells were cultured on filter supports and infected on the apical side with 10^6 CFU/ml of P. aeruginosa PAO1 (PAO1) or bacteria mixed with PSP peptides, as indicated. Control MDCK cells were incubated with buffer alone (HOAc). After 24 h incubation at 37° C., the OD 600 nm was determined for the media in the basolateral compartment to detect bacterial penetration of the MDCK cell monolayer.
To determine if PSP peptides prevent the penetration of epithelial cell monolayers, the epithelial cell line MDCK was cultured on permeable membrane filters. P. aeruginosa were added to the apical medium of confluent MDCK cell monolayers and bacterial penetration was determined as the number of bacteria recovered from the basolateral medium after a 24 h incubation.

[4] = tested on: LPS-binding protein (LBP); experiment: Inhibition of LPS binding to LPS-binding protein (ELISA)
Procedure: Analysis of the PSP sequence indicated three possible regions of biological activity. Initially, three peptides corresponding to the PSP sequence in these regions were designed and used in these studies. The initial step in the inflammatory cascade is the binding of LPS to LPS-binding protein. This binding was inhibited by preincubation of LPS with each of the three peptides. […] The binding of LPS to LPB was analyzed to ELISA. 0% inhibition (100% binding) was determined in the absence of inhibitors while 100% inhibition was determined in the presence of the inhibitor polymyxin B. The inhibition of each peptide is determined relative to the effect of polymyxin B.

[5] = tested on: RAW 264.7 macrophage cells; experiment: LPS-induced TNFα secretion (ELISA); assay type: cell-based, mouse; conditions: P. aeruginosa LPS
Procedure: as §2
In the present experiments, the redesigned PSP peptides (GL13, KL11) were tested for their effect on TNFα secretion and compared to GK7.

## GQIINLK [GK7, GQIINLK]
P. aeruginosa
  infection of lettuce leaves: neither GK-7 nor LL37 showed a significant effect on infection
P. aeruginosa PAO1; aerobic
  bacterial growth in biofilm/adhesion assay: affected neither growth nor adhesion
  biofilm formation / adhesion: affected neither growth nor adhesion
[1]
  bacterial clearance / phagocytosis: had no effect on clearance
RAW 264.7 cells
  TNFα secretion with peptide alone: small increase in TNFα secretion
Sheep red blood cells
  hemagglutination (words): did not cause hemagglutination

## KLLNNVISKLL [KL11, KLLNNVISKLL]
P. aeruginosa
  infection of lettuce leaves: significantly reduced the infection; also recorded: significantly inhibit P. aeruginosa infection
P. aeruginosa PAO1; aerobic
  bacterial growth in biofilm/adhesion assay: only a small (non-significant) reduction of bacterial growth
  inhibition of biofilm formation (adhesion): 40%
P. aeruginosa PAO1; reduced oxygen conditions
  biofilm formation: reduced biofilm formation under low oxygen conditions
[2]
  survival of A. actinomycetemcomitans: 40%
[3]
  penetration / invasion of MDCK cell monolayers by P. aeruginosa: could inhibit the penetration
Sheep red blood cells
  hemagglutination (words): did not cause hemagglutination

## polymyxin B [reference compound]
[4]
  effect on LPS binding to LBP: Strong inhibition
RAW 264.7 cells; no LPS stimulation
  TNFα secretion with peptide alone: exhibited toxicity to RAW cells, as evidenced by increased TNFα release
Sheep red blood cells
  hemagglutination (words): did not cause hemagglutination
[5]
  inhibition of LPS-induced TNFα secretion: about 50%
